{
  "source": "patent US5169838A",
  "about": "“Benzopyranone-β-D-thioxylosides and their use in therapy” (Fournier Industrie et Sante, priority 1989, dated 1992)",
  "data": [
    {"experiment": "venous thrombosis (venous stasis under hypercoagulation with activated factor X, Wessler technique)", "assay_type": "in vivo, male Wistar rats", "settings": "po, administered orally, rat, thrombosis induced 4 hours after treatment, thrombus weighed", "method": "The study is performed on unfasted male Wistar rats weighing 250 to 280 g, divided up into groups of 10 animals each. The test products are administered orally as a suspension in PEG 400. A thrombosis is induced 4 hours after this treatment and the thrombus formed is removed and weighed.", "units": {"inhibition in vivo at 3 mg/kg": "%"}, "values": [
      {"compound": "CCc1cc(=O)oc2cc(O[C@@H]3SC[C@@H](O)[C@H](O)[C@H]3O)ccc12", "note": "[Example 1, 4-ethyl-2-oxo-2H-1-benzopyran-7-yl 5-thio-β-D-xylopyranoside]", "inhibition in vivo at 3 mg/kg": 87},
      {"compound": "CCc1cc(=O)oc2cc(O[C@@H]3SC[C@@H](OC(C)=O)[C@H](OC(C)=O)[C@H]3OC(C)=O)ccc12", "note": "[Example 1a, 4-ethyl-2-oxo-2H-1-benzopyran-7-yl 2,3,4-tri-O-acetyl-5-thio-β-D-xylopyranoside]", "inhibition in vivo at 3 mg/kg": 65},
      {"compound": "Cc1cc(=O)oc2ccc(O[C@@H]3SC[C@@H](O)[C@H](O)[C@H]3O)cc12", "note": "[Example 2, 4-methyl-2-oxo-2H-1-benzopyran-6-yl 5-thio-β-D-xylopyranoside]", "inhibition in vivo at 3 mg/kg": 81},
      {"compound": "CC(=O)O[C@@H]1[C@@H](OC(C)=O)[C@H](OC(C)=O)CS[C@H]1Oc1ccc2oc(=O)cc(C)c2c1", "note": "[Example 2a, 4-methyl-2-oxo-2H-1-benzopyran-6-yl 2,3,4-tri-O-acetyl-5-thio-β-D-xylopyranoside]", "inhibition in vivo at 3 mg/kg": 53},
      {"compound": "O=c1cc(C(F)(F)F)c2ccc(O[C@@H]3SC[C@@H](O)[C@H](O)[C@H]3O)cc2o1", "note": "[Example 3, 4-trifluoromethyl-2-oxo-2H-1-benzopyran-7-yl 5-thio-β-D-xylopyranoside]", "inhibition in vivo at 3 mg/kg": 80},
      {"compound": "CC(=O)O[C@@H]1[C@@H](OC(C)=O)[C@H](OC(C)=O)CS[C@H]1Oc1ccc2c(C(F)(F)F)cc(=O)oc2c1", "note": "[Example 3a, 4-trifluoromethyl-2-oxo-2H-1-benzopyran-7-yl 2,3,4-tri-O-acetyl-5-thio-β-D-xylopyranoside]", "inhibition in vivo at 3 mg/kg": 47},
      {"compound": "Cc1cc(=O)oc2c(O[C@@H]3SC[C@@H](O)[C@H](O)[C@H]3O)cccc12", "note": "[Example 4, 4-methyl-2-oxo-2H-1-benzopyran-8-yl 5-thio-β-D-xylopyranoside]", "inhibition in vivo at 3 mg/kg": 52},
      {"compound": "CC(=O)O[C@@H]1[C@@H](OC(C)=O)[C@H](OC(C)=O)CS[C@H]1Oc1cccc2c(C)cc(=O)oc12", "note": "[Example 4a, 4-methyl-2-oxo-2H-1-benzopyran-8-yl 2,3,4-tri-O-acetyl-5-thio-β-D-xylopyranoside]", "inhibition in vivo at 3 mg/kg": 51},
      {"compound": "CCCc1cc(=O)oc2cc(O[C@@H]3SC[C@@H](O)[C@H](O)[C@H]3O)ccc12", "note": "[Example 5, 2-oxo-4-propyl-2H-1-benzopyran-7-yl 5-thio-β-D-xylopyranoside]", "inhibition in vivo at 3 mg/kg": 26},
      {"compound": "CCCc1cc(=O)oc2cc(O[C@@H]3SC[C@@H](OC(C)=O)[C@H](OC(C)=O)[C@H]3OC(C)=O)ccc12", "note": "[Example 5a, 2-oxo-4-propyl-2H-1-benzopyran-7-yl 2,3,4-tri-O-acetyl-5-thio-β-D-xylopyranoside]", "inhibition in vivo at 3 mg/kg": 46},
      {"compound": "Cc1cc(=O)oc2cccc(O[C@@H]3SC[C@@H](O)[C@H](O)[C@H]3O)c12", "note": "[Example 6, 4-methyl-2-oxo-2H-1-benzopyran-5-yl 5-thio-β-D-xylopyranoside]", "inhibition in vivo at 3 mg/kg": 42},
      {"compound": "Cc1cc(=O)oc2cccc(S[C@@H]3SC[C@@H](O)[C@H](O)[C@H]3O)c12", "note": "[Example 7, 4-methyl-2-oxo-2H-1-benzopyran-5-yl 1,5-dithio-β-D-xylopyranoside]", "inhibition in vivo at 3 mg/kg": 38},
      {"compound": "Cc1cc(=O)oc2cc(S[C@@H]3SC[C@@H](O)[C@H](O)[C@H]3O)ccc12", "note": "[Example 8, 4-methyl-2-oxo-2H-1-benzopyran-7-yl 1,5-dithio-β-D-xylopyranoside]", "inhibition in vivo at 3 mg/kg": 46},
      {"compound": "CC(=O)O[C@@H]1[C@@H](OC(C)=O)[C@H](Sc2ccc3c(C)cc(=O)oc3c2)SC[C@H]1OC(C)=O", "note": "[Example 8a, 4-methyl-2-oxo-2H-1-benzopyran-7-yl 2,3,4-tri-O-acetyl-1,5-dithio-β-D-xylopyranoside]", "inhibition in vivo at 3 mg/kg": 65},
      {"compound": "Cc1cc(=O)oc2c(S[C@@H]3SC[C@@H](O)[C@H](O)[C@H]3O)cccc12", "note": "[Example 9, 4-methyl-2-oxo-2H-1-benzopyran-8-yl 1,5-dithio-β-D-xylopyranoside]", "inhibition in vivo at 3 mg/kg": 31},
      {"compound": "Cc1cc(=O)oc2ccc(S[C@@H]3SC[C@@H](O)[C@H](O)[C@H]3O)cc12", "note": "[Example 10, 4-methyl-2-oxo-2H-1-benzopyran-6-yl 1,5-dithio-β-D-xylopyranoside]", "inhibition in vivo at 3 mg/kg": 37},
      {"compound": "CC(=O)O[C@@H]1[C@@H](OC(C)=O)[C@H](Sc2ccc3oc(=O)cc(C)c3c2)SC[C@H]1OC(C)=O", "note": "[Example 10a, 4-methyl-2-oxo-2H-1-benzopyran-6-yl 2,3,4-tri-O-acetyl-1,5-dithio-β-D-xylopyranoside]", "inhibition in vivo at 3 mg/kg": 32},
      {"compound": "O=c1cc(C(F)(F)F)c2ccc(S[C@@H]3SC[C@@H](O)[C@H](O)[C@H]3O)cc2o1", "note": "[Example 11, 4-trifluoromethyl-2-oxo-2H-1-benzopyran-7-yl 1,5-dithio-β-D-xylopyranoside]", "inhibition in vivo at 3 mg/kg": 36},
      {"compound": "Cc1c(Cl)c(=O)oc2cc(S[C@@H]3SC[C@@H](O)[C@H](O)[C@H]3O)ccc12", "note": "[Example 12, 3-chloro-4-methyl-2-oxo-2H-1-benzopyran-7-yl 1,5-dithio-β-D-xylopyranoside]", "inhibition in vivo at 3 mg/kg": 65},
      {"compound": "CC(=O)O[C@@H]1[C@@H](OC(C)=O)[C@H](Sc2ccc3c(C)c(Cl)c(=O)oc3c2)SC[C@H]1OC(C)=O", "note": "[Example 12a, 3-chloro-4-methyl-2-oxo-2H-1-benzopyran-7-yl 2,3,4-tri-O-acetyl-1,5-dithio-β-D-xylopyranoside]", "inhibition in vivo at 3 mg/kg": 32},
      {"compound": "CCc1cc(=O)oc2cc(S[C@@H]3SC[C@@H](O)[C@H](O)[C@H]3O)ccc12", "note": "[Example 13, 4-ethyl-2-oxo-2H-1-benzopyran-7-yl 1,5-dithio-β-D-xylopyranoside]", "inhibition in vivo at 3 mg/kg": 54},
      {"compound": "CCc1cc(=O)oc2cc(S[C@@H]3SC[C@@H](OC(C)=O)[C@H](OC(C)=O)[C@H]3OC(C)=O)ccc12", "note": "[Example 13a, 4-ethyl-2-oxo-2H-1-benzopyran-7-yl 2,3,4-tri-O-acetyl-1,5-dithio-β-D-xylopyranoside]", "inhibition in vivo at 3 mg/kg": 58},
      {"compound": "CCCc1cc(=O)oc2cc(S[C@@H]3SC[C@@H](O)[C@H](O)[C@H]3O)ccc12", "note": "[Example 14, 2-oxo-4-propyl-2H-1-benzopyran-7-yl 1,5-dithio-β-D-xylopyranoside]", "inhibition in vivo at 3 mg/kg": 43},
      {"compound": "CCCc1cc(=O)oc2cc(S[C@@H]3SC[C@@H](OC(C)=O)[C@H](OC(C)=O)[C@H]3OC(C)=O)ccc12", "note": "[Example 14a, 2-oxo-4-propyl-2H-1-benzopyran-7-yl 2,3,4-tri-O-acetyl-1,5-dithio-β-D-xylopyranoside]", "inhibition in vivo at 3 mg/kg": 25},
      {"compound": "O=c1oc2cc(S[C@@H]3SC[C@@H](O)[C@H](O)[C@H]3O)ccc2c2c1CCCC2", "note": "[Example 15, 7,8,9,10-tetrahydro-6-oxo-6H-dibenzo[b,d]pyran-3-yl 1,5-dithio-β-D-xylopyranoside]", "inhibition in vivo at 3 mg/kg": 31},
      {"compound": "CC(=O)O[C@@H]1[C@@H](OC(C)=O)[C@H](Sc2ccc3c4c(c(=O)oc3c2)CCCC4)SC[C@H]1OC(C)=O", "note": "[Example 15a, 7,8,9,10-tetrahydro-6-oxo-6H-dibenzo[b,d]pyran-3-yl 2,3,4-tri-O-acetyl-1,5-dithio-β-D-xylopyranoside]", "inhibition in vivo at 3 mg/kg": 23},
      {"compound": "Cc1cc(=O)oc2cc(O[C@@H]3SC[C@@H](O)[C@H](O)[C@H]3O)ccc12", "note": "[Example 16, 4-methyl-2-oxo-2H-1-benzopyran-7-yl 5-thio-β-D-xylopyranoside]", "inhibition in vivo at 3 mg/kg": 63},
      {"compound": "CC(=O)O[C@@H]1[C@@H](OC(C)=O)[C@H](OC(C)=O)CS[C@H]1Oc1ccc2c(C)cc(=O)oc2c1", "note": "[Example 16a, 4-methyl-2-oxo-2H-1-benzopyran-7-yl 2,3,4-tri-O-acetyl-5-thio-β-D-xylopyranoside]", "inhibition in vivo at 3 mg/kg": 63}
    ]}
  ]
}
